In US12060351B2, “Thiadiazole IRAK4 inhibitors” (Gilead Sciences, Inc., priority 2018, dated 2024) one finds IC50 and EC50 data, which are given here for 19 compounds.

The term IC50 denotes the concentration needed to halve the response being measured. Broadly, the EC50 is the concentration at which the effect is half-maximal.

Where two headings read alike, the source gives them in different places.

In one assay the target is T1, IRAK4 enzyme (Homo sapiens, UniProt Q9NWZ3).
T1 construct: purchased Carna Biosciences, Chuo-ku, Kobe, Japan
T1 sequence (Q9NWZ3 1-460): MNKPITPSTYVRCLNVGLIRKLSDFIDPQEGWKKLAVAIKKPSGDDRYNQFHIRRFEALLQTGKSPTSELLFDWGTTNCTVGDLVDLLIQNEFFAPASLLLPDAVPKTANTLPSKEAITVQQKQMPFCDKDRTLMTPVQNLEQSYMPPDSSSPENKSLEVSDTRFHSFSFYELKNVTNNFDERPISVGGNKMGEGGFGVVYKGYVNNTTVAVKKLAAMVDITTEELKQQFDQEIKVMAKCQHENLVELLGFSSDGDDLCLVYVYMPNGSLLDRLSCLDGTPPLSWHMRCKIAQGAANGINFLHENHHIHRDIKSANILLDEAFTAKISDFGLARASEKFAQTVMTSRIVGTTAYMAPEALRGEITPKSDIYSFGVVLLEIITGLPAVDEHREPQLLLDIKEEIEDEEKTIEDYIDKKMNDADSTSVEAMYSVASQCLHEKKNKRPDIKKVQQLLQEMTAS
Description: IRAK4 Biochemical Assay (TR-FRET, STK1 KinEASE). The conditions noted are these: 500 μM ATP, Table 2 second part (compounds 33-343), read-out: IC50 IRAK4-HTBS. The method in brief: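 Human IRAK4 (0.75 nM) preincubated 15 min with compound and 2 μM STK1 peptide, then reacted 120 min at room temperature with 500 μM ATP in HEPES pH 7.0 buffer with MgCl2 and DTT. EDTA stop with Cryptate anti-phosphopeptide antibody and tracer, 60 min; TR-FRET read as 665/615 nm ratio.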

For a further assay, the system named is TNFα. The assay is described as follows: IRAK4 Monocyte TNFα Cell Based Assay (LPS-stimulated, TR-FRET TNFα detection). Particulars: Homo sapiens, Monocyte, read-out: EC50 MONO TNF HTRF. On the set-up: species or system human. The method in brief: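 Monocytes (5,000 cells/well) treated with compound (0.1% DMSO) for 1 hour at 37° C, then stimulated with 50 pg/ml LPS for 4 hours. TNFα in medium quantified by TR-FRET two-antibody detection after overnight room-temperature incubation. Percent of control calculated against unstimulated (0%) and LPS-stimulated (100%) cells.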

Where [1] appears, read: human monocytes, LPS-stimulated, Table 2 second part (compounds 33-343).

As for `N#Cc1cnn2c(-c3cc(NC4CCOCC4)c(-c4nnc([C@H]5CC[C@H](NC(=O)C6CC6)CC5)s4)cn3)ccc2c1` [Example 156, N-((1r,4r)-4-(5-(6-(3-cyanopyrrolo[1,2-b]pyridazin-7-yl)-4-((tetrahydro-2H-pyran-4-yl)amino)pyridin-3-yl)-1,3,4-thiadiazol-2-yl)cyclohexyl)cyclopropanecarboxamide], at IRAK4 enzyme, the IC50 is 1.42 nM. In addition, in the assay with TNFα (setting [1]), the concentration giving a half-maximal response (EC50) turned out to be 10.9 nM.
For the compound `CC(=O)N[C@]1(C)[C@@H]2CC[C@H]1CN(c1nnc(-c3cnc(-c4ccc5cc(C#N)cnn45)cc3N[C@H](C)C#N)s1)C2` [Example 157, N-((1R,5S,8S)-3-(5-(4-(((R)-1-cyanoethyl)amino)-6-(3-cyanopyrrolo[1,2-b]pyridazin-7-yl)pyridin-3-yl)-1,3,4-thiadiazol-2-yl)-8-methyl-3-azabicyclo[3.2.1]octan-8-yl)acetamide], the IC50 at IRAK4 enzyme worked out at 1.03 nM. The half-maximal effective concentration (EC50) in the assay on TNFα (setting [1]) was found to be 1.8 nM.
Consider `CC1(Nc2cc(-c3ccc4cc(C#N)cnn34)ncc2-c2nnc([C@H]3CC[C@H](NC(=O)C4CC4)CC3)s2)COC1` [Example 158, N-((1r,4r)-4-(5-(6-(3-cyanopyrrolo[1,2-b]pyridazin-7-yl)-4-((3-methyloxetan-3-yl)amino)pyridin-3-yl)-1,3,4-thiadiazol-2-yl)cyclohexyl)cyclopropanecarboxamide], for which the IC50 at IRAK4 enzyme was found to be 1.15 nM. In the assay on TNFα (setting [1]), the concentration giving a half-maximal response (EC50) is 19.8 nM.
In the same order, the values of `C[C@H](C#N)Nc1cc(-c2ccc3cc(C#N)cnn23)ncc1-c1nnc([C@H]2CC[C@H](NC(=O)C3CC3)CC2)s1` [Example 160, N-((1R,4r)-4-(5-(4-(((R)-1-cyanoethyl)amino)-6-(3-cyanopyrrolo[1,2-b]pyridazin-7-yl)pyridin-3-yl)-1,3,4-thiadiazol-2-yl)cyclohexyl)cyclopropanecarboxamide] are 0.52 nM and 2.8 nM.
In the same order, the values of `CC(=O)N[C@H]1[C@@H]2CCC[C@H]1CN(c1nnc(-c3cnc(-c4ccc5cc(C#N)cnn45)cc3NC(C)C)s1)C2` [Example 165, N-((1R,5S,9r)-3-(5-(6-(3-cyanopyrrolo[1,2-b]pyridazin-7-yl)-4-(isopropylamino)pyridin-3-yl)-1,3,4-thiadiazol-2-yl)-3-lazabicyclo[3.3.1]nonan-9-yl)acetamide] are 1.15 nM and 39.1 nM.
In the case of `CC(=O)N[C@@H]1[C@@H]2CCC[C@H]1CN(c1nnc(-c3cnc(-c4ccc5cc(C#N)cnn45)cc3NC(C)C)s1)C2` [Example 166, N-((1R,5S,9s)-3-(5-(6-(3-cyanopyrrolo[1,2-b]pyridazin-7-yl)-4-(isopropylamino)pyridin-3-yl)-1,3,4-thiadiazol-2-yl)-3-azabicyclo[3.3.1]nonan-9-yl)acetamide], at IRAK4 enzyme, the half-inhibitory concentration (IC50) worked out at 0.66 nM. The EC50 in the assay with TNFα (setting [1]) was determined as 2.3 nM.
Taken in the same sequence, the figures for `CC(=O)N[C@@H]1[C@@H]2CC[C@H]1CN(c1nnc(-c3cnc(-c4ccc5cc(C#N)cnn45)cc3NC3CCOCC3)s1)C2` [Example 171, N-((1R,5S,8s)-3-(5-(6-(3-cyanopyrrolo[1,2-b]pyridazin-7-yl)-4-((tetrahydro-2H-pyran-4-yl)amino)pyridin-3-yl)-1,3,4-thiadiazol-2-yl)-3-azabicyclo[3.2.1]octan-8-yl)acetamide] were 0.46 nM and 2.1 nM.
For the compound `CC(=O)N[C@@H]1[C@@H]2C[C@H]1CN(c1nnc(-c3cnc(-c4ccc5cc(C#N)cnn45)cc3NC(C)C)s1)C2` [Example 173, N-((1R,5S,6s)-3-(5-(6-(3-cyanopyrrolo[1,2-b]pyridazin-7-yl)-4-(isopropylamino)pyridin-3-yl)-1,3,4-thiadiazol-2-yl)-3-azabicyclo[3.1.1]heptan-6-yl)acetamide], the IC50 at IRAK4 enzyme amounted to 1.52 nM. In addition, in the assay with TNFα, the EC50 turned out to be 11.6 nM.
In the case of `CC(=O)N[C@@H]1[C@@H]2C[C@H]1CN(c1nnc(-c3cnc(-c4ccc5cc(C#N)cnn45)cc3N[C@H](C)C#N)s1)C2` [Example 174, N-((1R,5S,6S)-3-(5-(4-(((R)-1-cyanoethyl)amino)-6-(3-cyanopyrrolo[1,2-b]pyridazin-7-yl)pyridin-3-yl)-1,3,4-thiadiazol-2-yl)-3-azabicyclo[3.1.1]heptan-6-yl)acctamide], the concentration for half-maximal inhibition (IC50) on IRAK4 enzyme is 0.49 nM. In addition, the concentration giving a half-maximal response (EC50) in the assay with TNFα came to 3.5 nM.
`CC(=O)N[C@@H]1[C@@H]2C[C@H]1CN(c1nnc(-c3cnc(-c4ccc5cc(C#N)cnn45)cc3NC3(C)COC3)s1)C2` [Example 175, N-((1R,5S,6s)-3-(5-(6-(3-cyanopyrrolo[1,2-b]pyridazin-7-yl)-4-((3-methyloxetan-3-yl)amino)pyridin-3-yl)-1,3,4-thiadiazol-2-yl)-3-azabicyclo[3.1.1]heptan-6-yl)acetamide]: the IC50 at IRAK4 enzyme came to 0.57 nM. In addition, the EC50 in the assay with TNFα stood at 9 nM.
Taken in the same sequence, the figures for `CNc1cc(-c2ccc3cc(C#N)cnn23)ncc1-c1nnc(N2C[C@H]3C[C@@H](C2)[C@@H]3NC(C)=O)s1` [Example 176, N-((1R,5S,6s)-3-(5-(6-(3-cyanopyrrolo[1,2-b]pyridazin-7-yl)-4-(methylamino)pyridin-3-yl)-1,3,4-thiadiazol-2-yl)-3-azabicyclo[3.1.1]heptan-6-yl)acetamide] were 0.76 nM and 23.5 nM.
Taken in the same sequence, the figures for `CC(=O)N[C@@H]1[C@@H]2C[C@H]1CN(c1nnc(-c3cnc(-c4ccc5cc(C#N)cnn45)cc3NC3COC3)s1)C2` [Example 179, N-((1R,5S,6s)-3-(5-(6-(3-cyanopyrrolo[1,2-b]pyridazin-7-yl)-4-(oxetan-3-ylamino)pyridin-3-yl)-1,3,4-thiadiazol-2-yl)-3-azabicyclo[3.1.1]heptan-6-yl)acetamide] were 0.37 nM and 6.4 nM.
Turning to `CC(=O)N[C@H]1[C@@H]2COC[C@H]1CN(c1nnc(-c3cnc(-c4ccc5cc(C#N)cnn45)cc3NC(C)C)s1)C2` [Example 182, N-((1R,5S,9r)-7-(5-(6-(3-cyanopyrrolo[1,2-b]pyridazin-7-yl)-4-(isopropylamino)pyridin-3-yl)-1,3,4-thiadiazol-2-yl)-3-oxa-7-azabicyclo[3.3.1]nonan-9-yl)acetamide], the IC50 on IRAK4 enzyme stood at 0.53 nM. In the assay on TNFα (setting [1]), the half-maximal effective concentration (EC50) is 37.8 nM.
`CC(=O)N[C@@H]1[C@@H]2CC[C@H]1CN(c1nnc(-c3cnc(-c4ccc5cc(C#N)cnn45)cc3NC3COC3)s1)C2` [Example 184, N-((1R,5S,8s)-3-(5-(6-(3-cyanopyrrolo[1,2-b]pyridazin-7-yl)-4-(oxetan-3-ylamino)pyridin-3-yl)-1,3,4-thiadiazol-2-yl)-3-azabicyclo[3.2.1]octan-8-yl)acetamide]: the IC50 on IRAK4 enzyme stood at 0.54 nM. Besides, the EC50 in the assay with TNFα (setting [1]) worked out at 2.4 nM.
Consider `CC(C)Nc1cc(-c2ccc3cc(C#N)cnn23)ncc1-c1nnc([C@H]2C[C@@](C)(O)C2)s1` [Example 199, 7-(5-(5-((1s,3s)-3-hydroxy-3-methylcyclobutyl)-1,3,4-thiadiazol-2-yl)-4-(isopropylamino)pyridin-2-yl)pyrrolo[1,2-b]pyridazine-3-carbonitrile], for which the IC50 at IRAK4 enzyme turned out to be 0.69 nM. Besides, the concentration giving a half-maximal response (EC50) in the assay with TNFα (setting [1]) was found to be 38.3 nM.
Regarding `C[C@]1(O)C[C@@H](c2nnc(-c3cnc(-c4ccc5cc(C#N)cnn45)cc3NC3COC3)s2)C1` [Example 200, 7-(5-(5-((1s,3s)-3-hydroxy-3-methylcyclobutyl)-1,3,4-thiadiazol-2-yl)-4-(oxetan-3-ylamino)pyridin-2-yl)pyrrolo[1,2-b]pyridazine-3-carbonitrile], the half-inhibitory concentration (IC50) at IRAK4 enzyme turned out to be 0.63 nM. Besides, the EC50 in the assay with TNFα (setting [1]) is 24.1 nM.
With `CC(=O)N[C@H]1C[C@H](c2nnc(-c3cnc(-c4ccc5cc(C#N)cnn45)cc3NC3CCOCC3)s2)C1` [Example 201, N-((1r,3r)-3-(5-(6-(3-cyanopyrrolo[1,2-b]pyridazin-7-yl)-4-((tetrahydro-2H-pyran-4-yl)amino)pyridin-3-yl)-1,3,4-thiadiazol-2-yl)cyclobutyl)acetamide], the IC50 on IRAK4 enzyme is 1.17 nM. The EC50 in the assay on TNFα (setting [1]) came out at 34.9 nM.
Taken in the same sequence, the figures for `CC(=O)N[C@H]1C[C@H](c2nnc(-c3cnc(-c4ccc5cc(C#N)cnn45)cc3NC3COC3)s2)C1` [Example 202, N-((1r,3r)-3-(5-(6-(3-cyanopyrrolo[1,2-b]pyridazin-7-yl)-4-(oxctan-3-ylamino)pyridin-3-yl)-1,3,4-thiadiazol-2-yl)cyclobutyl)acetamide] were 1.23 nM and 166 nM.
Consider `N#Cc1cnn2c(-c3cc(NC4COC4)c(-c4nnc([C@H]5CC[C@@H](NC(=O)C6CC6)CC5)s4)cn3)ccc2c1` [Example 203, N-((1s,4s)-4-(5-(6-(3-cyanopyrrolo[1,2-b]pyridazin-7-yl)-4-(oxetan-3-ylamino)pyridin-3-yl)-1,3,4-thiadiazol-2-yl)cyclohexyl)cyclopropanecarboxamide], for which, at IRAK4 enzyme, the concentration for half-maximal inhibition (IC50) came to 0.83 nM. Further, the EC50 with TNFα (setting [1]) stood at 13.7 nM.
